Earlier results on three molecules are cited in patent publication US12285413B2 (priority 2020, dated 2025).

In data set [1] the target is glucocorticoid receptor (Homo sapiens, UniProt P04150). Particulars: relative to cortisol.
Data set [2] has as its system coronavirus.
In data set [3] the test system is SARS-CoV. The note with it: mouse, prophylactic and early therapeutic administration.
In data set [4] the test system is SARS-CoV. The note with it: multiple in vitro systems, including primary human airway epithelial cell cultures.
For data set [5], the system named is MERS-CoV. The note with it: multiple in vitro systems, including primary human airway epithelial cell cultures.
Data set [6] concerns SARS-CoV-2.

Chain of glucocorticoid receptor (P04150 whole entry): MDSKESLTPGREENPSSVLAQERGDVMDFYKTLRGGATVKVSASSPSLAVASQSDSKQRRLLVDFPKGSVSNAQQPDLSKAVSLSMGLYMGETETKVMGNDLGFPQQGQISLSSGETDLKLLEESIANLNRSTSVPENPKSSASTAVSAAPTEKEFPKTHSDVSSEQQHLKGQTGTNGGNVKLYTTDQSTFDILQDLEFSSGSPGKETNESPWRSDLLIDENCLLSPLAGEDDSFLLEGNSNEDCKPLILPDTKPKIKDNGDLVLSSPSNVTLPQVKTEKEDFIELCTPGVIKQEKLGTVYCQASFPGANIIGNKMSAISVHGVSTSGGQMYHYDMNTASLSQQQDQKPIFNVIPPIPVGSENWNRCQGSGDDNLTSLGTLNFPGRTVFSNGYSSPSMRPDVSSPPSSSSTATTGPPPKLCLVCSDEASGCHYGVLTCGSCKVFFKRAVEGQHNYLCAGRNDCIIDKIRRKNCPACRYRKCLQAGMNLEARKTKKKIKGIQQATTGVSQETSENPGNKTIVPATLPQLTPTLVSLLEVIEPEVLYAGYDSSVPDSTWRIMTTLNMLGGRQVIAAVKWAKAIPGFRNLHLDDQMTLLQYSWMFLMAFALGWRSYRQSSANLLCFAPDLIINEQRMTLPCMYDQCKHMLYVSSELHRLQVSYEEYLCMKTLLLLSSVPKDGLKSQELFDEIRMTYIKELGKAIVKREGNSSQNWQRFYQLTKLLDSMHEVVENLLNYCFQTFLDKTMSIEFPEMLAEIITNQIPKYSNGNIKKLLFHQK

`C[C@@H]1C[C@H]2[C@@H]3CCC4=CC(=O)C=C[C@]4(C)[C@@]3(F)[C@@H](O)C[C@]2(C)[C@@]1(O)C(=O)CO` [dexamethasone]: the “anti-inflammatory and immunosuppressive potency versus cortisol” value in data set [1] is listed as “approximately 30 times”.
For the molecule `CCN(CCO)CCCC(C)Nc1ccnc2cc(Cl)ccc12` (stereo not shown) [Hydroxychloroquine], the “effect on coronavirus replication in in-vitro systems” value in data set [2] was “inhibitory effects”.
For the molecule `CCC(CC)COC(=O)[C@H](C)N[P@](=O)(OC[C@H]1O[C@@](C#N)(c2ccc3c(N)ncnn23)[C@H](O)[C@@H]1O)Oc1ccccc1` [Remdesivir], in data set [3], the lung viral load entry was “reduced lung viral load” and the respiratory function entry is “improved respiratory function”. Also, the “EC50, inhibition of SARS-CoV replication” value in data set [4] is “submicromolar”. Further, in data set [5], the “EC50, inhibition of MERS-CoV replication” value was “submicromolar”. For the same molecule, the “antiviral activity in SARS-CoV-2 in-vitro models” value in data set [6] is listed as “antiviral activity”.
